Experimental data reported in the Kinase Knowledgebase extract (Sharma et al. 2016).

Biological target: MAPK14 (human) (UniProt Q16539)
Test: Inhibition of MAPK14 Kinase Activity

MAPK14 (human), sequence (Q16539 whole entry, looked up): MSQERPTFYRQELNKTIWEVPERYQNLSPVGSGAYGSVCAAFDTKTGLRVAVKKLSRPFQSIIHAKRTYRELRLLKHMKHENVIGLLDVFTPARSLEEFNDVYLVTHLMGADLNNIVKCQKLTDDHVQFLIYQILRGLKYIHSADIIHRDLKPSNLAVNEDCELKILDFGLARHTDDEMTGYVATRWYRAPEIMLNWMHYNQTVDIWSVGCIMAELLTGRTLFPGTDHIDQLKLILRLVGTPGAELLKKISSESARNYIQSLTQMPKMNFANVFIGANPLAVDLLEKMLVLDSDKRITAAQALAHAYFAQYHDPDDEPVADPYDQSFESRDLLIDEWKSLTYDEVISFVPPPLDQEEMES

Row | Compound | IC50 [nM]
1 | CCC(CC)Nc1ncc(-c2cc(-c3cccc(C#N)c3)c3nccn3c2)s1 | 807
2 | CC(C)Nc1ncc(-c2cc(-c3ccccc3)c3nncn3c2)s1 | 581
3 | CC(C)Nc1ncc(-c2cc(-c3cccc(F)c3)c3nncn3c2)s1 | 91
4 | CC(C)Nc1ncc(-c2cc(-c3ccc(F)c(Cl)c3)c3nncn3c2)s1 | 604
5 | CCOC(=O)c1ccccc1-c1cc(-c2cnc(NC(C)C)s2)cn2ccnc12 | 795
6 | CC(C)Nc1ncc(-c2cc(-c3ccccc3C#N)c3nccn3c2)s1 | 669
7 | Cc1ccc(C)c(-c2cc(-c3cnc(NC(C)C)s3)cn3ccnc23)c1 | 1540
8 | Fc1ccccc1-c1nc(-c2cnc(NC3CCOCC3)s2)cn2ccnc12 | 109
9 | CC(C)Nc1ncc(-c2cn3ccnc3c(-c3ccccc3)n2)s1 | 60
10 | COC(=O)Cc1cn2cc(-c3cn[nH]c3)cc(-c3ccccc3)c2n1 | 924
11 | Cc1c(-c2cc(-c3ccccc3)c3nccn3c2)cnn1-c1ccccc1 | 630
12 | CC(C)Nc1ncc(-c2cc(-c3cccc(C#N)c3)c3nccn3c2)s1 | 926
13 | Cc1ccccc1-c1cc(-c2cnc(NCCN(C)C)s2)cn2ccnc12 | 1780
14 | CC[C@@H](C)Nc1ncc(-c2cn3ccnc3c(-c3ccccc3O)n2)s1 | 809

The next compounds have a lower IC50 than those just listed; values first:

Row | IC50 [nM] | Compound
15 | 41.6 | CC(C)C(C)Nc1ncc(-c2cc(-c3ccccc3)c3nccn3c2)s1 (configuration not stated)
16 | 40 | CCCCNc1ncc(-c2cc(-c3ccccc3)c3nc(C(=O)OCC)cn3c2)s1
17 | 40 | CCOCC(C)Nc1ncc(-c2cn3ccnc3c(-c3ccccc3F)n2)s1 (configuration not stated)
18 | 39 | CC(C)C(C)Nc1ncc(-c2cc(-c3ccccc3Cl)c3nccn3c2)s1 (configuration not stated)
19 | 38 | CC(C)Nc1cnc(-c2cc(-c3ccccc3)c3nc(CCO)cn3c2)s1
20 | 37 | CNC(=O)c1cn2cc(-c3cnc(NC(C)C)s3)cc(-c3ccccc3)c2n1
21 | 35.8 | Fc1ccc(-c2cc(-c3cnc(NC4CCOCC4)s3)cn3ccnc23)cc1
22 | 33 | CC[C@@H](C)Nc1ncc(-c2cc(-c3ccccc3)c3nc(CC(=O)OC)cn3c2)s1
23 | 23 | CC[C@@H](C)Nc1ncc(-c2cn3ccnc3c(-c3ccccc3F)n2)s1
24 | 15 | CC(C)Nc1ncc(-c2cc(-c3ccccc3Cl)c3nncn3c2)s1
25 | 13 | CC(C)Nc1ncc(-c2cc(-c3ccccc3F)c3nncn3c2)s1
26 | 6 | CCOC(=O)c1cn2cc(-c3cnc(N[C@H](C)CC)s3)cc(-c3ccccc3F)c2n1
27 | 5.9 | CC[C@@H](C)Nc1ncc(-c2cc(-c3ccccc3Cl)c3nccn3c2)s1
28 | 5.7 | CC[C@@H](C)Nc1ncc(-c2cc(-c3ccc(F)cc3F)c3nccn3c2)s1
29 | 5.2 | Cc1cscc1-c1cc(-c2cnc(NC(C)C)s2)cn2ccnc12
30 | 5 | CC[C@@H](C)Nc1ncc(-c2cc(-c3ccccc3C)c3nccn3c2)s1
31 | 3.4 | CC[C@@H](C)Nc1ncc(-c2cc(-c3ccccc3F)c3nccn3c2)s1
32 | 3 | CC[C@@H](C)Nc1ncc(-c2cc(-c3cscc3C)c3nccn3c2)s1
